According to patent publication US12351570B2 (MERCK PATENT GMBH, priority 2018, dated 2025):

tested on: MDA-MB-231 cells; test: Extracellular lactate production inhibition after 4 h, MDA-MB-231; conditions: Homo sapiens, MDA-MB-231

Row | SMILES | IC50
1 | O=C(O)c1ccc(C#Cc2ccccc2NS(=O)(=O)c2ccc3c(c2)CCO3)cc1 [Compound 3, 4-{2-[2-(2,3-dihydro-1-benzofuran-5-sulfonamido)phenyl]ethynyl}benzoic acid] | 1 to 100 µM
2 | CN(c1ccccc1C#Cc1ccc(C(=O)O)cc1)S(=O)(=O)c1ccc2ccccc2c1 [Compound 4, 4-{2-[2-(N-methylnaphthalene-2-sulfonamido)phenyl]ethynyl}benzoic acid] | 0.1 to 1 µM
3 | O=C(O)c1ccc(C#Cc2ccccc2NS(=O)(=O)c2ccc3ccccc3c2)cc1O [Compound 5, 2-hydroxy-4-{2-[2-(naphthalene-2-sulfonamido)phenyl]ethynyl}benzoic acid] | 1 to 100 µM
4 | O=C(O)c1ccc(C#Cc2ccccc2CS(=O)(=O)c2ccc3ccccc3c2)cc1 [Compound 6, 4-(2-{2-[(naphthalene-2-sulfonyl)methyl]phenyl}ethynyl)benzoic acid] | 0.1 to 1 µM
5 | O=C(O)c1ccc(C#Cc2ccccc2NS(=O)(=O)c2ccc3c(c2)CCCC3)cc1 [Compound 7, 4-{2-[2-(5,6,7,8-tetrahydronaphthalene-2-sulfonamido)phenyl]ethynyl}benzoic acid] | 0.1 to 1 µM
6 | COc1ccc(S(=O)(=O)Nc2ccccc2C#Cc2ccc(C(=O)O)cc2)c2ccccc12 [Compound 8, 4-{2-[2-(4-methoxynaphthalene-1-sulfonamido)phenyl]ethynyl}benzoic acid] | 0.1 to 1 µM
7 | COc1cccc(S(=O)(=O)Nc2ccccc2C#Cc2ccc(C(=O)O)c(C)c2)c1 [Compound 9, 4-{2-[2-(3-methoxybenzenesulfonamido)phenyl]-ethynyl}-2-methylbenzoic acid] | 1 to 100 µM
8 | Cc1cc(C#Cc2ccccc2NS(=O)(=O)c2ccc3ccccc3c2)ccc1C(=O)O [Compound 10, 2-methyl-4-{2-[2-(naphthalene-2-sulfonamido)phenyl]ethynyl}benzoic acid] | 0.1 to 1 µM
9 | COc1ccc(S(=O)(=O)Nc2ccccc2C#Cc2ccc(C(=O)O)cc2)c2c1CCCC2 [Compound 11, 4-{2-[2-(4-methoxy-5,6,7,8-tetrahydronaphthalene-1-sulfonamido)phenyl]ethynyl}benzoic acid] | 0.1 to 1 µM
10 | COc1cccc(S(=O)(=O)Nc2ccccc2C#Cc2ccc(C(=O)O)nc2)c1 [Compound 12, 5-{2-[2-(3-methoxybenzenesulfonamido)phenyl]-ethynyl}pyridine-2-carboxylic acid] | 1 to 100 µM
11 | O=C(O)c1ccc(C#Cc2ccccc2NS(=O)(=O)c2ccc3ccccc3c2)cc1F [Compound 14, 2-fluoro-4-{2-[2-(naphthalene-2-sulfonamido)phenyl]ethynyl}benzoic acid] | 0.1 to 1 µM
12 | O=C(O)c1ccc(C#Cc2cc(F)ccc2NS(=O)(=O)c2ccc3ccccc3c2)cc1 [Compound 15, 4-{2-[5-fluoro-2-(naphthalene-2-sulfonamido)phenyl]ethynyl}benzoic acid] | 0.1 to 1 µM
13 | O=C(NO)c1ccc(C#Cc2ccccc2NS(=O)(=O)c2ccc3ccccc3c2)cc1 [Compound 16, N-hydroxy-4-{2-[2-(naphthalene-2-sulfonamido)phenyl]ethynyl}benzamide] | 1 to 100 µM
14 | O=C(O)c1ccc(C#Cc2ccc(C(F)(F)F)cc2NS(=O)(=O)c2ccc3ccccc3c2)cc1 [Compound 17, 4-{2-[2-(naphthalene-2-sulfonamido)-4-(trifluoromethyl)phenyl]ethynyl}benzoic acid] | 0.1 to 1 µM
15 | COc1ccc(S(=O)(=O)Nc2ccccc2C#Cc2ccc(C(=O)O)c(C)c2)c2ccccc12 [Compound 18, 4-{2-[2-(4-methoxynaphthalene-1-sulfonamido)phenyl]ethynyl}-2-methylbenzoic acid] | 0.1 to 1 µM
16 | COc1ccc(C#Cc2ccc(C(=O)O)cc2)c(NS(=O)(=O)c2ccc3ccccc3c2)c1 [Compound 19, 4-{2-[4-methoxy-2-(naphthalene-2-sulfonamido)phenyl]ethynyl}benzoic acid] | 0.1 to 1 µM
17 | O=C(O)c1ccc(C#Cc2ccccc2C[S+]([O-])c2ccc3ccccc3c2)cc1 (stereo not drawn) [Compound 20, 4-(2-{2-[(naphthalene-2-sulfinyl)methyl]phenyl}ethynyl)benzoic acid] | 1 to 100 µM
18 | COc1ccc(S(=O)(=O)Nc2ccccc2C#Cc2ccc(C(=O)O)c(C#N)c2)c2ccccc12 [Compound 21, 2-cyano-4-{2-[2-(4-methoxynaphthalene-1-sulfonamido)phenyl]ethynyl}benzoic acid] | 1 to 100 µM
19 | Cc1c(S(=O)(=O)Nc2ccccc2C#Cc2ccc(C(=O)O)cc2)sc2ccc(Cl)cc12 [Compound 22, 4-{2-[2-(5-chloro-3-methyl-1-benzothiophene-2-sulfonamido)phenyl]ethynyl}benzoic acid] | 0.1 to 1 µM
20 | COc1ccc(S(=O)(=O)Nc2ccccc2C#Cc2ccc(C(=O)O)cc2)c(Cl)c1Cl [Compound 23, 4-{2-[2-(2,3-dichloro-4-methoxybenzenesulfonamido)phenyl]-ethynyl}benzoic acid] | 0.1 to 1 µM
21 | N#Cc1cc(C#Cc2ccccc2NS(=O)(=O)c2ccc3ccccc3c2)ccc1C(=O)O [Compound 24, 2-cyano-4-{2-[2-(naphthalene-2-sulfonamido)phenyl]ethynyl}benzoic acid] | 1 to 100 µM
22 | COc1ccc(S(=O)(=O)Nc2ccc(F)cc2C#Cc2ccc(C(=O)O)cc2)c2ccccc12 [Compound 25, 4-{2-[5-fluoro-2-(4-methoxynaphthalene-1-sulfonamido)phenyl]ethynyl}benzoic acid] | 0.1 to 1 µM
23 | COc1ccc(S(=O)(=O)Nc2ccccc2C#Cc2cc(F)c(C(=O)O)c(F)c2)c2ccccc12 [Compound 27, 2,6-difluoro-4-{2-[2-(4-methoxynaphthalene-1-sulfonamido)phenyl]ethynyl}benzoic acid] | 1 to 100 µM
24 | O=C(O)c1ccc(C#Cc2ccccc2NS(=O)(=O)c2ccc3ccccc3c2)cc1Cl [Compound 28, 2-chloro-4-{2-[2-(naphthalene-2-sulfonamido)phenyl]ethynyl}benzoic acid] | 0.1 to 1 µM
25 | O=C(O)c1c(F)cc(C#Cc2ccccc2NS(=O)(=O)c2ccc3ccccc3c2)cc1F [Compound 29, 2,6-difluoro-4-{2-[2-(naphthalene-2-sulfonamido)phenyl]ethynyl}benzoic acid] | 1 to 100 µM
26 | O=C(O)c1ccc(C#Cc2ccccc2NS(=O)(=O)c2ccc3ccccc3c2)c(F)c1 [Compound 30, 3-fluoro-4-{2-[2-(naphthalene-2-sulfonamido)phenyl]ethynyl}benzoic acid] | 0.1 to 1 µM
27 | COc1ccc(S(=O)(=O)Nc2ccccc2C#Cc2ccc(C(=O)O)nc2)c2ccccc12 [Compound 31, 5-{2-[2-(4-methoxynaphthalene-1-sulfonamido)phenyl]ethynyl}pyridine-2-carboxylic acid] | 0.1 to 1 µM
28 | O=C(O)c1ccc(C#Cc2cccc(F)c2NS(=O)(=O)c2ccc3ccccc3c2)cc1 [Compound 32, 4-{2-[3-fluoro-2-(naphthalene-2-sulfonamido)phenyl]ethynyl}benzoic acid] | 0.1 to 1 µM
29 | COc1cc(C#Cc2ccccc2NS(=O)(=O)c2ccc(OC)c3ccccc23)ccc1C(=O)O [Compound 33, 2-methoxy-4-{2-[2-(4-methoxynaphthalene-1-sulfonamido)phenyl]ethynyl}benzoic acid] | 0.1 to 1 µM
30 | O=C(O)c1ccc(C#Cc2ccccc2NS(=O)(=O)c2cnc(Cl)c(Br)c2)cc1 [Compound 34, 4-{2-[2-(5-bromo-6-chloropyridine-3-sulfonamido)phenyl]ethynyl}benzoic acid] | 1 to 100 µM
